The values that follow are results of earlier work, collected in patent publication US9861587B2, “Composition and method for treating ketosis in cows” (RP FEED COMPONENTS, LLC, priority 2011, dated 2018).

One series deals with ketotic cows. Particulars: two ketotic cows; daily injections or oral administration of 12.5 g.
The test system of another series is bovine ketosis. To be noted: oral administration.
Series [1] has as its system cases of clinical ketosis. To be noted: six cases; orally 40 g once daily for seven days; 21-day examination period.

On to `CSCCC(N)C(=O)O` (racemic) [DL-methionine], for which the treatment of ketosis entry in the series with ketotic cows is “unsuccessful treatment”.

For the molecule “DL-α-hydroxy-γ-methylmercaptobutyrate calcium [methionine hydroxy analog (MHA)]”, the “symptoms of bovine ketosis” value in the series on bovine ketosis was “aided in alleviating symptoms of bovine ketosis”. Also, the serum ketone levels entry in series [1] was “fell slowly over a 21-day examination period, but never returned to normal levels”.
